The values below come from patent US20210324281A1, “FUEL DERIVED FROM RENEWABLE RESOURCES” (priority 2018, published 2021).

In one data set the test system is Staphylococcus aureus. The data set is described as follows: Modified broth dilution in biphasic biofuel (Plantanol)/water system, turbidity at 600 nm. The following applies: for absorbance of the aqueous phase after incubation: medium pre-incubation 0.12, FIG. 20; for amount needed relative to ferulic acid to achieve the same effect: 10 wt.-% versus 0.25 wt.-% ferulic acid in Plantanol. Format: cell-based. From the text: (§1) The growth of microbes in the fuel is one of the main problems of biofuels, as set out above. The aim of the experiments was to investigate the bacterial growth in the biphasic biofuel/water system to see how the addition of an antimicrobial additive to the biofuel has an impact on the microbial growth in the aqueous bacteria solution. For this purpose, the so-called “broth dilution” method was modified and applied to the biphasic (biofuel+additive)/(water+bacteria) system.
(§2) This method represents a standard test for the investigation of bactericidal substances (e.g. antibiotics). At first, bacteria are incorporated in water that contains a nutrient medium (e.g. blood or yeast extracts). The potential antimicrobial agents are then added to the bacteria solution and the mixture is incubated over night at a certain temperature.
(§3) The concentration of bacteria can be measured by means of photometric spectroscopy as the presence of bacteria in a solution lead to turbidity. The higher the turbidity, the more bacteria are present in the solution. […] In some cases, the turbidity even decreases (=bacteria die).
(§4) The above-mentioned method was modified and applied to the biofuel/water system. For this purpose, there was one type of gram-negative (Escherichia coli) and gram-positive bacteria (Staphylococcus aureus) incorporated in each aqueous medium. The so-called “LB-medium” (lysogeny broth) was used as the nutrient medium. The biofuel (with and without additive) was then added to the bacteria solution leading to a phase separation of the biofuel (top) and aqueous medium (bottom).
(§5) The samples were incubated in a so-called incubator shaker, to ensure a good mixing of the two phases. Thereafter, the samples were taken out of the incubator and it was waited until complete phase separation occurred (˜30 minutes). Lastly, the aqueous phase was transferred and measured photometrically at a wavelength of A=600 nm.
(§6) Thus, the turbidity of the aqueous phase solely arises from the bacteria's presence in the water. Depending on the magnitude of the turbidity, it can be concluded whether and how the addition of a certain compound to the biofuel affects the bacterial growth in the aqueous medium.
(§7) For this purpose, different concentrations of antimicrobial substances were added to the biofuel and the effect of these substances on the turbidity of the samples was investigated. On the one hand, hydrophobic, biofuel-soluble bactericides were used (Eugenol, Carvacrol) and on the other hand hydrophilic, biofuel-insoluble substances (caffeic acid, gallic acid, ferulic acid) were used. The glycerol derivative solketal was used to make the hydrophilic substances soluble in the biofuel.
(§8) The chosen concentrations for Grotamar82 and Liqui Moly were the ones recommended by the manufacturer. For both products, there is a recommended concentration for prevention of diesel bug as well as a recommended “shock dosage” in case of an already existing microbial contamination. 1000 ppm of Grotamar82 as well 5000 ppm of the product by Liqui Moly are recommended as a “shock dosage” while 250 ppm and 1000 ppm are recommended to achieve an effective protection against diesel bug.
(§9) Additionally, formaldehyde was added to the Plantanol as the kinetics of the hydrolysis of MBO (cf. the above scheme) in Grotamar82 were not known. Grotamar82 contains about 20% of MBO, according to the manufacturer. Thus, a complete hydrolysis of the MBO in 250 ppm and 1000 ppm Grotamar82 would result in the production of 50 ppm and 200 ppm of formaldehyde respectively.
(Broth dilution looks for growth in wells or tubes with falling amounts of substance.)

A further data set has as its system Escherichia coli. The description is as above. Format: cell-based. To be noted: for effect on bacterial growth compared with Staphylococcus aureus: in Plantanol with solketal; for effect on bacterial growth compared with Staphylococcus aureus / bacterial growth (turbidity of the aqueous phase): FIG. 19; for microbial growth (turbidity of the aqueous phase): FIG. 21.
Excerpt: as §1, §2, §3, §4, §5, §6, §7, §8, §9

Data set [1] is described as follows: RapidOxy oxidative stability measurement (DIN EN 16091, 140° C., 700 kPa oxygen). Format: physicochemical. The following applies: for oxidative stability standard according to EN 14214: 500 ppm in Plantanol with 1 wt.-% solketal, FIG. 15; for oxidative stability of the single, pure component: standard: induction time above 33.3 min, FIG. 8. How it is done: In this method, the pressure of a closed, with oxygen filled and afterwards heated sample chamber is measured against time. […] Therefore, the samples are heated up to 140° C. with an oxygen pressure of 700 kPa. […] The incubation time is the period between the start of the experiment and until the pressure dropped by 10% compared to the maximum pressure in the sample chamber. In FIG. 8 etc., this limit is indicated by a dashed line.
For this purpose, the samples were heated up to 140° C. at 700 kPa in an oxygen atmosphere. Thereafter the device measured the pressure with respect to the time. The measurement automatically stopped once a decrease of the pressure of 10% occurred. The time needed for this decrease by 10% is called “induction time” and represents a characteristic quantity for the oxidative stability of a fuel. The quantity “ppm” (parts per million) in the present experimental examples refers to a molar ratio (n/n), if not stated otherwise.

The nature of data set [2]: Solubilisation of hydrophilic antioxidants in biofuel by glycerol derivatives. It is filed as physicochemical. Here is the method:
As a proof of concept, analogous experiments were carried out with the biofuel “Plantanol” from industry. […] The samples were prepared by dissolving the respective antioxidants in solketal.

Where [3] appears, read: 0.1-0.25 wt.-% in Plantanol, solubilised with solketal, FIG. 18.
The mark [4] stands for this setting: 330 ppm in 63/27/10 biodiesel (FAME)/rapeseed oil/solketal, FIG. 14.
Setting [5] is: 333 ppm in 63/27/10 FAME/rapeseed oil/solketal, FIG. 16.

On to `O=C(O)/C=C/c1ccc(O)c(O)c1` [caffeic acid], for which the “bacterial growth (turbidity of the aqueous phase)” value with Staphylococcus aureus (setting [3]) is given as “distinctly reduced”. In the data set on Escherichia coli, the “effect on bacterial growth compared with Staphylococcus aureus” value is on record as “smaller effect on the E.-coli bacteria than they had on the Staphylococcus aureus”. Moreover, the “oxidative stability of the biofuel (EN 14214)” value in data set [1] (setting [4]) is “enough to make the biofuel fulfil the standard”. In data set [2] (0.1 wt % of additive in Plantanol), the “amount of solketal found preferable to solubilize the additive” value was “up to 10 wt %”.

Take `CC(C)(C)c1cc(O)ccc1O` [TBHQ, 2-tert-butyl hydroquinone, reference compound]: the “oxidative stability standard according to EN 14214” value in data set [1] is given as “not reached”.

On to `OCCc1ccc(O)c(O)c1` [hydroxytyrosol], for which the “oxidative stability of the biofuel (EN 14214)” value in data set [1] (setting [4]) is listed as “enough to make the biofuel fulfil the standard”; in data set [1] (setting [5]), “stabilization above the minimum of EN 14214”.

Consider `CCCC(=O)OCC(COC(=O)CCC)OC(=O)CCC` [Tributyrin, glycerol tributyrate], for which the “oxidative stability of the single, pure component” value in data set [1] is reported as “insensitive toward oxidation”.

With `O=C(O)c1cc(O)c(O)c(O)c1` [gallic acid], the “bacterial growth (turbidity of the aqueous phase)” value in the data set on Staphylococcus aureus (setting [3]) is “distinctly reduced”. The “effect on bacterial growth compared with Staphylococcus aureus” value in the data set with Escherichia coli is recorded as “smaller effect on the E.-coli bacteria than they had on the Staphylococcus aureus”. Further, the figures for the “oxidative stability of the biofuel (EN 14214)” value in data set [1] (setting [4]) and in data set [1] (setting [5]) were “enough to make the biofuel fulfil the standard” and “stabilization above the minimum of EN 14214”, respectively. For the same molecule, in data set [1] (solketal system, higher concentrations, FIG. 11), the “induction time versus concentration, ranking” value is recorded as “most effective”. Besides, the “amount of solketal sufficient to solubilize the additive” value in data set [2] (500 ppm of additive in Plantanol) is under 0.5 wt %.

Turning to `CCCOC(=O)c1cc(O)c(O)c(O)c1` [propyl gallate], in data set [1] (tributyrin system (60 wt.-% FAME, 30 wt.-% rapeseed oil, 10 wt.-% tributyrin), FIG. 12), the “oxidative stability of the biofuel” value is reported as “the higher the concentration of the antioxidant, the better the stability toward oxidation is”.

As for `COc1cc(/C=C/C(=O)O)ccc1O` [ferulic acid], the “bacterial growth (turbidity of the aqueous phase)” value is on record as “drastically decreases” with Staphylococcus aureus (0.1 wt % dissolved in solketal, in Plantanol, FIG. 20); “complete inhibition” in the data set with Staphylococcus aureus (0.25 wt.-% in Plantanol, FIG. 18); “distinctly reduced it” in the data set on Escherichia coli (0.25 wt.-% in Plantanol). Besides, the “absorbance of the aqueous phase after incubation” value in the data set with Staphylococcus aureus (0.25 wt % in solketal/Plantanol) and in the data set on Staphylococcus aureus (0.5 wt % in solketal/Plantanol) was “below 0.12” each time. The “microbial growth (turbidity of the aqueous phase)” value is reported as “significantly decreased microbial growth” in the data set with Escherichia coli (0.1 wt % in solketal, in Plantanol); “No growth of bacteria was observable” in the data set on Escherichia coli (0.25 wt % in Plantanol); “No growth of bacteria was observable” in the data set on Escherichia coli (0.50 wt % in Plantanol).

`O=C1O[C@H]([C@@H](O)CO)C(O)=C1O` [vitamin C, ascorbic acid]: the “effect of addition on oxidative stability” value was “no effect on the overall stability” in data set [1] (167 ppm added to the system containing 333 ppm DHB, FIG. 16); “distinct increase of the oxidative stability” in data set [1] (167 ppm added to the system containing 333 ppm GA, FIG. 16); “distinct increase of the oxidative stability” in data set [1] (167 ppm added to the system containing 333 ppm HT, FIG. 16).

`Cc1ccc(C(C)C)cc1O` [Carvacrol, reference compound]: the “bacterial growth (turbidity of the aqueous phase)” value was “no effect on the bacterial growth” in the data set on Staphylococcus aureus (2 wt.-% in Plantanol, FIG. 18); “completely inhibited the growth” with Staphylococcus aureus (10 wt.-% in Plantanol, FIG. 18); “distinctly reduced it” with Escherichia coli (10 wt.-% in Plantanol). Besides, the “amount needed relative to ferulic acid to achieve the same effect” value in the data set on Staphylococcus aureus stood at 40 times.

Consider `CC1(C)OCC(CO)O1` (stereo not shown) [solketal, isopropylideneglycerol], for which the “oxidative stability of the single, pure component” value in data set [1] is on record as “oxidised nearly as fast as 2-methylfuran”.

As for `O=c1c(O)c(-c2ccc(O)c(O)c2)oc2cc(O)cc(O)c12` [quercetin], the “oxidative stability of the biofuel (EN 14214)” value in data set [1] (setting [4]) is reported as “enough to make the biofuel fulfil the standard”.

Consider `C=CCc1ccc(O)c(OC)c1` [Eugenol, reference compound], for which the “bacterial growth (turbidity of the aqueous phase)” value in the data set with Staphylococcus aureus (2 wt.-% in Plantanol, FIG. 18) is on record as “no effect on the bacterial growth”; in the data set on Staphylococcus aureus (10 wt.-% in Plantanol, FIG. 18), “completely inhibited the growth”; in the data set with Escherichia coli (10 wt.-% in Plantanol), “distinctly reduced it”. In the data set on Staphylococcus aureus, the “amount needed relative to ferulic acid to achieve the same effect” value amounted to 40 times.

For `Oc1ccc(O)cc1` [hydroquinone, reference compound], the “oxidative stability of the biofuel” value in data set [1] (0.2 wt.-% in solketal system (60 wt.-% FAME, 30 wt.-% rapeseed oil, 10 wt.-% solketal), FIG. 9) is given as “distinctly increased”; in data set [1] (160 ppm in solketal system (60/30/10), FIG. 9) it was “not enough to fulfill the standard”. Besides, the “oxidative stability of the biofuel (EN 14214)” value in data set [1] (setting [4]) is recorded as “enough to make the biofuel fulfil the standard”. The “oxidative stability standard according to EN 14214” value in data set [1] is recorded as “not reached”.
